Test results reported in publication PMC3831368 (Bioorganic & medicinal chemistry, 2013).

Assays:
MOR [1] = target: T1, MOR (Mus musculus, UniProt P42866); conditions: in vitro radioligand competition binding; cited from earlier work
morphine antinociception = conditions: cited from earlier work
MOR [2] = target: T1, MOR; conditions: cited from earlier work
W318A MOR = W318A MOR (Mus musculus, UniProt P42866, W318A); assay: Competition binding to site-directed mutated MOR W318A; conditions: read-out: W318A MOR IC50; ± SEM; transient CHO cells
Sequence of W318A MOR (P42866 whole entry W318A): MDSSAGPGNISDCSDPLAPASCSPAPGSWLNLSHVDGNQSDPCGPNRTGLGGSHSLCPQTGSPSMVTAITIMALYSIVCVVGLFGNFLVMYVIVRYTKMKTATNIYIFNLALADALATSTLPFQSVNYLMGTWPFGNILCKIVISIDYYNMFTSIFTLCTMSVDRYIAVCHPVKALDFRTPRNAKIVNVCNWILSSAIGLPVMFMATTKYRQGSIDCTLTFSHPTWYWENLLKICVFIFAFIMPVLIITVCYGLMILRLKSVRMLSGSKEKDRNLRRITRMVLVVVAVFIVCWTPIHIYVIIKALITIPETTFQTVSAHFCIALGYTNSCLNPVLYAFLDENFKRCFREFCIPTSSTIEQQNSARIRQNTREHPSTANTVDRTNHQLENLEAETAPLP

T1 sequence (P42866 whole entry): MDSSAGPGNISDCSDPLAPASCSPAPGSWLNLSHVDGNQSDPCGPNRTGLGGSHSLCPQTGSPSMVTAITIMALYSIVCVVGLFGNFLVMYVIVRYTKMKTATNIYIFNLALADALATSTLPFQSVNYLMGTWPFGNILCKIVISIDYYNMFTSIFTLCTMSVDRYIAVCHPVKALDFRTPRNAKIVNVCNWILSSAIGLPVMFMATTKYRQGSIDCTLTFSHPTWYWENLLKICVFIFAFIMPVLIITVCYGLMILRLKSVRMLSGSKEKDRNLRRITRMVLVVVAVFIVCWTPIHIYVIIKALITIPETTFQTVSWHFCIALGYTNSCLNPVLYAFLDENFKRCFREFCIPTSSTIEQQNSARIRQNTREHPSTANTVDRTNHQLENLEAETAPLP

Compound	affinity for the MOR (MOR [1])	antagonism in in vivo antinociceptive test against morphine (morphine antinociception)	agonism in the in vitro GTPγS assay (MOR [2])	IC50 (W318A MOR)
O=C(N[C@@H]1CC[C@@]2(O)[C@H]3Cc4ccc(O)c5c4[C@@]2(CCN3CC2CC2)[C@H]1O5)c1ccncc1 [NAP]	sub-nanomolar	potent antagonism	marginal partial agonism	–
O=C(N[C@H]1CC[C@@]2(O)[C@H]3Cc4ccc(O)c5c4[C@@]2(CCN3CC2CC2)[C@H]1O5)c1cc2ccccc2cn1 [NAQ]	sub-nanomolar	potent antagonism	marginal partial agonism	> 1000 nM
